Data on 4 compounds can be found in patent publication US6455593B1, “Method of dynamic retardation of cell cycle kinetics to potentiate cell damage” (priority 1995, dated 2002).

In assay [1] the test system is human promonocytic lymphoma cells (U937). The experiment in a line: Microculture indicator system (MIS), MTT growth inhibition assay with bivariate serial dilutions. It counts as cell-based. The settings on record: for Combined results ratio / Growth inhibition (MTT): STSP 17 H, dGuo 0 H, STSP nM by row: r7 100, r8 50, r9 25, r10 12.5, r11 6.25, r12 3.13, r13-r14 0. On the procedure:
Microcultures of human promonocytic lymphoma cells (U937) (“the U937 cells”) originally obtained from the American Type Culture Collection (CRL 1593) and later grown by Dr. K. Zoon at the FDA in Bethesda, Md. were set up in a multiwell plate with serial two-fold dilutions of dThd in tissue culture growth medium (RPMI 1640 plus 10% Nurserum and antibiotics). The volume of medium per well was 100 μl and the cell number per well was about 1×10^5. The plate was incubated at 37° C. for 24 hr.
A dye, 3-[4,5-dimethylthiazol-2-yl]-2,5-diphenyl-tetrazolium bromide (MTT), was used as a chromogenic indicator of the metabolically active cell mass. Viable cells metabolize the dye and accumulate a reduced formazan product (blue color) which is solubilized for colorimetry. Mossman T, J. Immunol. Methods 5:55-63 (1983); Li L and Lau B H S, In Vitro Cell Dev. Biol. 29A:531-536 (1993). The MTT assay has been established as useful for measuring either growth inhibition or population killing. Plowman, supra. The MTT method is ideal for cells tested in suspension growth, and can also be used for some cells growing in monolayers. […] Alley, supra; Hofs, supra; Wilson J K et al., Br. J. Cancer 62:189-94 (1990); Plowman, supra.
Thirty μl of 0.5% MTT in phosphate buffered saline was added to each microculture well at the appropriate time. After incubation at 37° C. for 3 hr, 120 μl of an aqueous solution of 10 % SDS with 0.01 N HCl was added to release and dissolve formazan product. This was accomplished by overnight incubation of the plate at 37° C. After careful mixing of the microwell contents by placing the plates on an orbital shaker for 5 minutes the absorbencies were quantitated by spectrophotometry at 570 nm with a Ceres UV 900 HDI microwell plate reader (from Biotek Instruments Inc, Winooski, Vt. 05404-0998). Absorbance data was normalized to a blank well containing all reagents without cells and was collected semi-automatically.
Flat-bottom 96-well plates of tissue culture quality (Corning or Costar) were set up with two-fold serial dilutions of each agent to be tested, e.g., the RA and TCI, using a multichannel pipettor with adjustable volume, e.g., Costar or Rainin, to perform serial mixing. This set-up is diagrammed in FIG. 12. […] In each plate, a total of 59 wells then contained bivariate agent combinations, the bivariate serial dilutions.
Agents were serially diluted by serial mixing in two separate plates or series of wells, and then were combined prior to addition of a fixed volume and density of the U937 cells in a suspension calculated to deliver about 1×10^5 cells per well.
Cells were added after serial dilutions of the dThd had been dispensed. Cells were dispensed at about 10×10^4 cells per microwell to provide optimal sensitivity of detection of cell damage in subsequent calorimetric assays. […] The final volume of medium was 100 μl/well. The plates were further incubated at 37° C. for a total duration of 18-24 h. The dye MTT was used as a chromogenic indicator of the residual and metabolically active cell mass. (Described in Example 1).
In this MTT assay, normalized absorbance data was collected semi-automatically from each microculture well with a Ceres UV 900 HD1 plate reader, from Biotek Instruments Inc., Winooski, V T 05404-0998, stored in an EIA file under the Ceres 900 program, transferred in comma delimited format to a floppy diskette, and imported into a spread sheet program (Borland Quattro Pro) for data manipulations.

The next assay relates to U937 cells. The experiment in a line: Flow cytometric cell cycle analysis (propidium iodide). In kind it is cell-based, human. Conditions: bivariate flow cytometry, PI and fluorescein-labelled antibody to BrdU. On the procedure: Flow cytometric analyses were performed with a Coulter Epics System (purchased from Coulter Corp, Hialeah, Fla.). Cells were disrupted in buffer with 0.1% Triton-X 100 (or 0.6 % NP-40), so that the nuclei could be stained with 0.05% propidium iodide (PI). See Shapiro N M, Practical Flow Cytometry, Man R Liss, NY (1988); Nicoletti I et al., J Immunol Methods 139:271-9 (1991). Analyses of 10,000 nuclei were performed with graduated concentrations of dThd at serial time points. Histograms of PI fluorescent emissions at 675±10 nm were used to discriminate cell cycle fractions of the target population. The proportion of cells in each phase of the cell cycle is represented by stack bars above the X-axis as a fraction of those cells with intact DNA structure. The fraction of cells with depleted DNA in each sample is represented below the X-axis as a percentage of the total cell number. Cells with depleted DNA are presumed apoptotic. Crompton S T et. al. Biophys. Biochem. Res. Comm. 183:532-537 (1992). Each stack bar in FIG. 5 represents the cell cycle distribution of a population sample of >10,000 cells, analyzed for each indicated dThd concentration at indicated treatment times.
Flow cytometric analyses were performed as in Example 2. The results are shown in plot A of FIG. 5 from Example 2.
The U937 cells were exposed to a range of concentrations below the IC40 and sampled for flow cytometry at intervals of 8, 16, and 24 hours. Flow cytometric analysis was performed as described in Example 2.
(In general: In flow cytometry, cells or beads pass a laser one at a time.)

Setting [2] is: U937, total 17 H, dGuo 0.01 mM (ninth dilution, c19).
Where [3] appears, read: U937, total 17 H, dGuo 0.01 mM (tenth dilution, c21).

For `O=c1[nH]c(=O)n([C@H]2C[C@H](O)[C@@H](CO)O2)cc1Br` [BrdU, bromodeoxyuridine], in assay [1] (U937), the “RA concentration for STSP potentiation relative to concentration causing cell cycle arrest” value is “at least one log lower”. The “Growth inhibition (MTT), BrdU 0.01 mM (ninth dilution)” value in assay [1] (U937, BrdU 0.01 mM (c19) for 4 H, STSP for 18 H, total 22 H, STSP nM rows r7-r12: 200,100,60,26,12.6,6.25, r14 BrdU alone) came to 4%. In assay [1] (U937, BrdU 0.01 mM (c21, last dilution) for 4 H, STSP for 18 H, total 22 H, STSP nM rows r7-r12: 200,100,60,26,12.6,6.25, r14 BrdU alone), the “Growth inhibition (MTT), BrdU 0.01 mM (tenth, last dilution)” value came out at 4%. Also, the “Combined results ratio (CRR), BrdU 0.02 mM” value in assay [1] (U937, BrdU 0.02 mM for 4 H, STSP for 18 H, total 22 H, STSP nM rows r7-r12: 200,100,60,26,12.6,6.25, r13 BrdU alone) turned out to be 1.0. Further, the “Growth inhibition (MTT), BrdU 0.02 mM” value in assay [1] (U937, BrdU 0.02 mM for 4 H, STSP for 18 H, total 22 H, STSP nM rows r7-r12: 200,100,60,26,12.6,6.25, r14 BrdU alone) is 5%. In assay [1] (U937, BrdU 0.06 mM for 4 H, STSP for 18 H, total 22 H, STSP nM rows r7-r12: 200,100,60,26,12.6,6.25, r13 BrdU alone), the “Combined results ratio (CRR), BrdU 0.06 mM” value turned out to be 1.0. The “Growth inhibition (MTT), BrdU 0.06 mM” value in assay [1] (U937, BrdU 0.06 mM for 4 H, STSP for 18 H, total 22 H, STSP nM rows r7-r12: 200,100,60,26,12.6,6.25, r14 BrdU alone) was 10%. Moreover, in assay [1] (U937, BrdU 0.09 mM for 4 H, STSP for 18 H, total 22 H, STSP nM rows r7-r12: 200,100,60,26,12.6,6.25, r13 BrdU alone), the “Combined results ratio (CRR), BrdU 0.09 mM” value worked out at 1.0. Besides, in assay [1] (U937, BrdU 0.09 mM for 4 H, STSP for 18 H, total 22 H, STSP nM rows r7-r12: 200,100,60,26,12.6,6.25, r14 BrdU alone), the “Growth inhibition (MTT), BrdU 0.09 mM” value is 21%. For the same compound, the “Combined results ratio (CRR), BrdU 3.00 mM” value in assay [1] (U937, BrdU 3.00 mM for 4 H, STSP for 18 H, total 22 H, STSP nM rows r7-r12: 200,100,60,26,12.6,6.25, r13 BrdU alone) is 1.0. The “Growth inhibition (MTT), BrdU 3.00 mM” value in assay [1] (U937, BrdU 3.00 mM for 4 H, STSP for 18 H, total 22 H, STSP nM rows r7-r12: 200,100,60,26,12.6,6.25, r14 BrdU alone) worked out at 61%. Also, the “Combined results ratio (CRR), BrdU […]” value in assay [1] (U937, BrdU […] for 4 H, STSP for 18 H, total 22 H, STSP nM rows r7-r12: 200,100,60,26,12.6,6.25, r13 BrdU alone) came to 1.0. Also, the “Effect on S phase” value in the assay with U937 cells was “produced a slowing of S phase similar to that caused by dThd”.

For `Nc1nc2c(ncn2[C@H]2C[C@H](O)[C@@H](CO)O2)c(=O)[nH]1` [dGuo], in assay [1] (U937, dGuo 0.02 mM for 0 H, STSP for 17 H, total 17 H, STSP nM: 100,50,25,12.5,6.25,3.13, r13 dGuo alone), the “Combined results ratio (CRR), dGuo 0.02 mM” value amounted to 1.0. Besides, the “Growth inhibition (MTT), dGuo 0.02 mM” value in assay [1] (U937, dGuo 0.02 mM for 0 H, STSP for 17 H, total 17 H, STSP nM: 100,50,25,12.5,6.25,3.13, r14 dGuo alone) is 10%. Besides, the “Combined results ratio (CRR), dGuo 0.06 mM” value in assay [1] (U937, dGuo 0.06 mM for 0 H, STSP for 17 H, total 17 H, STSP nM: 100,50,25,12.5,6.25,3.13, r13 dGuo alone) was 1.0. Moreover, the “Growth inhibition (MTT), dGuo 0.06 mM” value in assay [1] (U937, dGuo 0.06 mM for 0 H, STSP for 17 H, total 17 H, STSP nM: 100,50,25,12.5,6.25,3.13, r14 dGuo alone) is given as 25%. Also, in assay [1] (U937, dGuo 0.09 mM for 0 H, STSP for 17 H, total 17 H, STSP nM: 100,50,25,12.5,6.25,3.13, r13 dGuo alone), the “Combined results ratio (CRR), dGuo 0.09 mM” value came out at 1.0. For the same compound, the “Growth inhibition (MTT), dGuo 0.09 mM” value in assay [1] (U937, dGuo 0.09 mM for 0 H, STSP for 17 H, total 17 H, STSP nM: 100,50,25,12.5,6.25,3.13, r14 dGuo alone) was determined as 57%. Moreover, the “Combined results ratio (CRR), dGuo 3.00 mM” value in assay [1] (U937, dGuo 3.00 mM for 0 H, STSP for 17 H, total 17 H, STSP nM: 100,50,25,12.5,6.25,3.13, r13 dGuo alone) worked out at 1.0. In addition, the “Growth inhibition (MTT), dGuo 3.00 mM” value in assay [1] (U937, dGuo 3.00 mM for 0 H, STSP for 17 H, total 17 H, STSP nM: 100,50,25,12.5,6.25,3.13, r14 dGuo alone) amounted to 93%. Besides, in assay [1] (U937, dGuo […] for 0 H, STSP for 17 H, total 17 H, STSP nM: 100,50,25,12.5,6.25,3.13, r13 dGuo alone), the “Combined results ratio (CRR), dGuo […]” value was 1.0. The Combined results ratio in assay [1] (setting [2]) turned out to be 1.0; in assay [1] (setting [3]) it was 1.0; in assay [1] (U937, total 17 H, dGuo 0.02 mM), 1.0; in assay [1] (U937, total 17 H, dGuo 0.06 mM) it was 1.0; in assay [1] (U937, total 17 H, dGuo 0.09 mM) it was 1.0; in assay [1] (U937, total 17 H, dGuo 3.00 mM) it was 1.0. In addition, the “Growth inhibition (MTT)” value in assay [1] (setting [2]) turned out to be 2%; in assay [1] (setting [3]), 2%; in assay [1] (U937, total 17 H, dGuo 0.02 mM), 10%; in assay [1] (U937, total 17 H, dGuo 0.06 mM), 25%; in assay [1] (U937, total 17 H, dGuo 0.09 mM) it was 57%; in assay [1] (U937, total 17 H, dGuo 3.00 mM), 93%.

Take `O=c1[nH]c(=O)n([C@H]2C[C@H](O)[C@@H](CO)O2)cc1F` [floxuridine]: the “Potentiation of DNA damage by STSP as RA” value in assay [1] (U937, concentrations less than IC40, STSP as the TCI) is “proved successful in potentiating DNA damage by STSP”.

As to bleomycin, the “Combined results ratio, bleomycin only” value in assay [1] (MTT #523, total 20 Hours, bleomycin 16 Hours, no STSP, bleomycin mU by row: r9 160, r10 80, r11 40, r12 20, r13 10, r14 5) worked out at 1.0.
